One experiment concerns the target T1, human Factor XIa (Homo sapiens, UniProt P03951).
T1 construct: purchased Haematologic Technologies
The experiment in a line: Factor XIa enzyme inhibition assay (chromogenic substrate S-2366), Ki. It counts as biochemical. As to conditions: purified human Factor XIa, substrate S-2366, pH 7.4. The method, then:
(§1) The effectiveness of compounds of the present invention as inhibitors of the coagulation Factors XIa, VIIa, IXa, Xa, XIIa, plasma kallikrein chymotrypsin, trypsin, or thrombin, can be determined using a relevant purified serine protease, respectively, and an appropriate synthetic substrate. The rate of hydrolysis of the chromogenic or fluorogenic substrate by the relevant serine protease was measured both in the absence and presence of compounds of the present invention. […] A decrease in the rate of absorbance or fluorescence change in the presence of inhibitor is indicative of enzyme inhibition. Such methods are known to one skilled in the art. The results of this assay are expressed as the inhibitory constant, Ki.
Factor XIa determinations were made in 50 mM HEPES buffer at pH 7.4 containing 145 mM NaCl, 5 mM KCl, and 0.1% PEG 8000 (polyethylene glycol; JT Baker or Fisher Scientific). Determinations were made using purified human Factor XIa at a final concentration of 25-200 pM (Haematologic Technologies) and the synthetic substrate S-2366 (pyroGlu-Pro-Arg-pNA; CHROMOGENIX® or AnaSpec) at a concentration of 0.0002-0.001 M.
(§2) The Michaelis constant, Km, for substrate hydrolysis by each protease, was determined at 25° C. or 37° C. in the absence of inhibitor. Values of Ki were determined by allowing the protease to react with the substrate in the presence of the inhibitor. Reactions were allowed to go for periods of 20-180 minutes (depending on the protease) and the velocities (rate of absorbance or fluorescence change versus time) were measured. The following relationships were used to calculate Ki values: (Vmax*S)/(Km+S) (vo−vs)/vs=I/(Ki*(1+S/Km)) for a competitive inhibitor with one binding site; or vs/vo=A+((B−A)/(1+(IC50/(I)^n)); and Ki=IC50/(1+S/Km) for a competitive inhibitor where: […]

The next experiment has as its target T2, human plasma kallikrein (Homo sapiens, UniProt P03952).
T2 construct: purchased Enzyme Research Laboratories
As to the kind of experiment: Plasma kallikrein enzyme inhibition assay (chromogenic substrate S-2302), Ki. Format: biochemical. As to conditions: purified human plasma kallikrein, substrate S-2302, pH 7.5. Here is the method:
as §1
Plasma kallikrein determinations were made in 0.1 M sodium phosphate buffer at a pH of 7.5 containing 0.1-0.2 M sodium chloride and 0.5% PEG 8000. Determinations were made using purified human plasma kallikrein (Enzyme Research Laboratories) at a final assay concentration of 200 pM and the synthetic substrate S-2302 (H-(D)-Pro-Phe-Arg-pNA; CHROMOGENIX®) at a concentration of 0.00008-0.0004 M.
as §2

Each structure is given as a SMILES string. Counter-ions that a name gives are not always drawn.

T1 sequence (P03951 388-625 limits assumed): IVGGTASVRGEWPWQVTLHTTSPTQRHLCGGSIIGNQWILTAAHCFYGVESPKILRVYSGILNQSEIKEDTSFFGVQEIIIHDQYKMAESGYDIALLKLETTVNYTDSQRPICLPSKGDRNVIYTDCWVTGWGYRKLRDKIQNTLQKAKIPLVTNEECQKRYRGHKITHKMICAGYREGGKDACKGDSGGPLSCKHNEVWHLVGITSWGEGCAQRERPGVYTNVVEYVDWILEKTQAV
T1 sequence (P03951 19-387 partner limits assumed): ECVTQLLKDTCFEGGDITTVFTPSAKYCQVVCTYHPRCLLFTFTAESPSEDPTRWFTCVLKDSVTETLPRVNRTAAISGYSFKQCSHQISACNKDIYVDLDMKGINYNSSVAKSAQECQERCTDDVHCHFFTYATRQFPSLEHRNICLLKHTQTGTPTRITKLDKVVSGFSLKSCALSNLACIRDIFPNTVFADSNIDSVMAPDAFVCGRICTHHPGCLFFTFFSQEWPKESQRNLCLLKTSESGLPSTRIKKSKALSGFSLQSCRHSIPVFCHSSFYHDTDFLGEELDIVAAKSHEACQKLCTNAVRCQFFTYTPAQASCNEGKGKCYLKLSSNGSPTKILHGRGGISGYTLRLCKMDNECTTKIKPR
T2 sequence (P03952 391-638 limits assumed): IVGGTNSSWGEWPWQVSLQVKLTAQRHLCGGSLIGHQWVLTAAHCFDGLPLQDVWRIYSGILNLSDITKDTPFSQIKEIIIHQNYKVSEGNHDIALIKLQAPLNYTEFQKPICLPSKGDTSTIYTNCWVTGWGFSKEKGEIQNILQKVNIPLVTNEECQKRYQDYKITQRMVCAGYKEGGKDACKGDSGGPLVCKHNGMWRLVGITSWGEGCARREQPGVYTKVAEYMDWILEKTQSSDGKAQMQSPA
T2 sequence (P03952 20-390 partner limits assumed): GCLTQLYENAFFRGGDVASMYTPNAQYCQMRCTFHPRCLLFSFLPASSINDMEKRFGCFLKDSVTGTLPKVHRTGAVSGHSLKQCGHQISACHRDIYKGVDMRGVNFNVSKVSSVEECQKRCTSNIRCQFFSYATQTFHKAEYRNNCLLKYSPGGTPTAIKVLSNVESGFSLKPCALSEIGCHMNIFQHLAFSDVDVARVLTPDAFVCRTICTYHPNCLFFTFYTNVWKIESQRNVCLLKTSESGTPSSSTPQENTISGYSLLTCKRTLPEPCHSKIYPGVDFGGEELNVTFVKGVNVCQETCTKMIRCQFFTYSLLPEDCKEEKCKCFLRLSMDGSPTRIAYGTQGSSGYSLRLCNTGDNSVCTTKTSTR

With `O=C(NC[C@H]1Nc2cccc(c2)[C@@H](n2cnc(-c3cc(Cl)ccc3-n3cc(Cl)nn3)cc2=O)CCCCCNC1=O)c1cccnc1` [Example 24, N-{[(3R,11S)-11-{4-[5-chloro-2-(4-chloro-1H-1,2,3-triazol-1-yl)phenyl]-6-oxo-1,6-dihydropyrimidin-1-yl}-4-oxo-2,5-diazabicyclo[10.3.1]hexadeca-1(16),12,14-trien-3-yl]methyl}pyridine-3-carboxamide trifluoromethylacetate], the results for the Ki on human Factor XIa and on human plasma kallikrein were 62 nM and 5200 nM, respectively.

Consider `COC(=O)NCC[C@@H]1Nc2cccc(c2)[C@@H](n2cnc(-c3cc(Cl)ccc3-n3cc(Cl)nn3)cc2=O)CCCCCNC1=O` [Example 30, methyl N-{2-[(3S,11S)-11-{4-[5-chloro-2-(4-chloro-1H-1,2,3-triazol-1-yl)phenyl]-6-oxo-1,6-dihydropyrimidin-1-yl}-4-oxo-2,5-diazabicyclo[10.3.1]hexadeca-1(16),12,14-trien-3-yl]ethyl}carbamate trifluoromethyl acetate], for which the inhibitory constant (Ki) on human Factor XIa came to 515 nM; on human plasma kallikrein, 5680 nM.

Consider `CC(C)(C)OC(=O)N1CC(=O)N2c3cccc(c3)[C@@H](n3cnc(-c4cc(Cl)ccc4-n4cc(Cl)nn4)cc3=O)CCCCCNC(=O)[C@@H]2C1` [Example 4, tert-butyl (7S,15S)-15-{4-[5-chloro-2-(4-chloro-1H-1,2,3-triazol-1-yl)phenyl]-6-oxo-1,6-dihydropyrimidin-1-yl}-3,8-dioxo-2,5,9-triazatricyclo[14.3.1.0^2,7]icosa-1(20),16,18-triene-5-carboxylate], for which the Ki stood at 9020 nM at human Factor XIa and 3140 nM on human plasma kallikrein.

As for `O=C1NCCCCC[C@H](n2cnc(-c3cc(Cl)ccc3-n3cc(Cl)nn3)cc2=O)c2cccc(c2)N2C(=O)CNC[C@H]12` [Example 7, (7R,15S)-15-{4-[5-chloro-2-(4-chloro-1H-1,2,3-triazol-1-yl)phenyl]-6-oxo-1,6-dihydropyrimidin-1-yl}-2,5,9-triazatricyclo[14.3.1.0^2,7]icosa-1(20),16,18-triene-3,8-dione hydrochloride], the results for the Ki at human Factor XIa and at human plasma kallikrein were 97 nM and 4780 nM, respectively.

Regarding `CC(C)(C)OC(=O)N1CCN2c3cccc(c3)[C@@H](n3cnc(-c4cc(Cl)ccc4-n4cc(Cl)nn4)cc3=O)CCCCNC(=O)[C@H]2C1` [Example 15, tert-butyl (7R,14S)-14-{4-[5-chloro-2-(4-chloro-1H-1,2,3-triazol-1-yl)phenyl]-6-oxo-1,6-dihydropyrimidin-1-yl}-8-oxo-2,5,9-triazatricyclo[13.3.1.0^2,7]nonadeca-1(19),15,17-triene-5-carboxylate, trifluoromethylacetate], the Ki at human Factor XIa was 492 nM; at human plasma kallikrein, 3430 nM.

As for `O=C1NCCCCC[C@H](n2cnc(-c3cc(Cl)ccc3-n3cc(C(F)(F)F)nn3)cc2=O)c2cccc(c2)N2C(=O)CC[C@H]12` [Example 33, (6R,14S)-14-(4-{5-chloro-2-[4-(trifluoromethyl)-1H-1,2,3-triazol-1-yl]phenyl}-6-oxo-1,6-dihydropyrimidin-1-yl)-2,8-diazatricyclo[13.3.1.0^2,6]nonadeca-1(19),15,17-triene-3,7-dione], the inhibition constant Ki on human Factor XIa was found to be 12 nM; at human plasma kallikrein it was 319 nM.

With `CC(C)(C)OC(=O)N1CCN2c3cccc(c3)[C@@H](n3cnc(-c4c(-n5cc(Cl)nn5)ccc(Cl)c4F)cc3=O)CCCCCNC(=O)[C@H]2C1` [Example 19, tert-butyl (7R,15S)-15-{4-[3-chloro-6-(4-chloro-1H-1,2,3-triazol-1-yl)-2-fluorophenyl]-6-oxo-1,6-dihydropyrimidin-1-yl}-8-oxo-2,5,9-triazatricyclo[14.3.1.0^2,7]icosa-(20),16,18-triene-5-carboxylate trifluoromethylacetate], the Ki was 5 nM at human Factor XIa and 345 nM at human plasma kallikrein.

In the case of `O=C1NCCCCC[C@H](n2cnc(-c3cc(Cl)ccc3-n3cc(Cl)nn3)cc2=O)c2cccc(c2)N2CCC[C@H]12` [Example 36, (6R,14S)-14-{4-[5-chloro-2-(4-chloro-1H-1,2,3-triazol-1-yl)phenyl]-6-oxo-1,6-dihydropyrimidin-1-yl}-2,8-diazatricyclo[13.3.1.0^2,6]nonadeca-1(19),15,17-trien-7-one], the Ki is 8 nM on human Factor XIa and 133 nM on human plasma kallikrein.

In the case of `CCOC(=O)c1cnc(N2CCN3c4cccc(c4)[C@@H](n4cnc(-c5cc(Cl)ccc5-n5cc(Cl)nn5)cc4=O)CCCCCNC(=O)[C@H]3C2)o1` [Example 17, ethyl 2-[(7R,15S)-15-{4-[5-chloro-2-(4-chloro-1H-1,2,3-triazol-1-yl)phenyl]-6-oxo-1,6-dihydropyrimidin-1-yl}-8-oxo-2,5,9-triazatricyclo[14.3.1.0^2,7]icosa-1(20),16,18-trien-5-yl]-1,3-oxazole-5-carboxylate trifluoromethylacetate], the values for the inhibition constant Ki on human Factor XIa and at human plasma kallikrein were 16 nM and 1220 nM, respectively.

Take `O=C1NCCCCC[C@H](n2cnc(-c3c(-n4cc(Cl)nn4)ccc(Cl)c3F)cc2=O)c2cccc(c2)N2C(=O)CC[C@@H]12` [Example 35, (6S,14S)-14-{4-[3-chloro-6-(4-chloro-1H-1,2,3-triazol-1-yl)-2-fluorophenyl]-6-oxo-1,6-dihydropyrimidin-1-yl}-2,8-diazatricyclo[13.3.1.0^2,6]nonadeca-1(19),15,17-triene-3,7-dione]: the figures for the Ki on human Factor XIa and at human plasma kallikrein were 5170 nM and 11100 nM, respectively.

As to `O=C1CN2c3cccc(c3)[C@@H](n3cnc(-c4cc(Cl)ccc4-n4cc(Cl)nn4)cc3=O)CCCCCNC(=O)C2CN1` (stereo partly drawn) [Example 25, (15S)-15-{4-[5-chloro-2-(4-chloro-1H-1,2,3-triazol-1-yl)phenyl]-6-oxo-1,6-dihydropyrimidin-1-yl}-2,5,9-triazatricyclo[14.3.1.0^2,7]icosa-1(20),16,18-triene-4,8-dione], the inhibitory constant (Ki) amounted to 51 nM at human Factor XIa and 6750 nM at human plasma kallikrein.

For `COC(=O)NC[C@H]1Nc2cccc(c2)[C@@H](n2cnc(-c3cc(Cl)ccc3-n3cc(Cl)nn3)cc2=O)CCCCCNC1=O` [Example 23, methyl N-{[(3R,11S)-11-{4-[5-chloro-2-(4-chloro-1H-1,2,3-triazol-1-yl)phenyl]-6-oxo-1,6-dihydropyrimidin-1-yl}-4-oxo-2,5-diazabicyclo[10.3.1]hexadeca-1(16),12,14-trien-3-yl]methyl}carbamate trifluoromethyl acetate], the values for the Ki on human Factor XIa and on human plasma kallikrein were 27 nM and 2720 nM, respectively.

On to `O=C(O)CN1CCN2c3cccc(c3)[C@@H](n3cnc(-c4cc(Cl)ccc4-n4cc(Cl)nn4)cc3=O)CCCCCNC(=O)[C@H]2C1` [Example 14, 2-[(7R,15S)-15-{4-[5-chloro-2-(4-chloro-1H-1,2,3-triazol-1-yl)phenyl]-6-oxo-1,6-dihydropyrimidin-1-yl}-8-oxo-2,5,9-triazatricyclo[14.3.1.0^2,7]icosa-1(20),16,18-trien-5-yl]acetic acid trifluoromethyl acetate], for which the Ki on human Factor XIa was 5 nM; at human plasma kallikrein, 107 nM.

Regarding `CC(C)(C)OC(=O)CN1CCN2c3cccc(c3)[C@@H](n3cnc(-c4cc(Cl)ccc4-n4cc(Cl)nn4)cc3=O)CCCCCNC(=O)[C@H]2C1` [Example 11, tert-butyl 2-[(7R,15S)-15-{4-[5-chloro-2-(4-chloro-1H-1,2,3-triazol-1-yl)phenyl]-6-oxo-1,6-dihydropyrimidin-1-yl}-8-oxo-2,5,9-triazatricyclo[14.3.1.0^2,7]icosa-1(20),16,18-trien-5-yl]acetate trifluoromethylacetate], the inhibitory constant (Ki) is 11 nM at human Factor XIa and 460 nM on human plasma kallikrein.

Turning to `COC(=O)N1CCN2c3cccc(c3)[C@@H](N3CCC(c4cc(Cl)ccc4-n4cc(Cl)nn4)=CC3=O)CCCCCNC(=O)[C@H]2C1` [Example 22, methyl (7R,15S)-15-{4-[5-chloro-2-(4-chloro-1H-1,2,3-triazol-1-yl)phenyl]-6-oxo-1,2,3,6-tetrahydropyridin-1-yl}-8-oxo-2,5,9-triazatricyclo[14.3.1.0^2,7]icosa-1(20),16,18-triene-5-carboxylate trifluoromethyl acetate], the values for the Ki on human Factor XIa and at human plasma kallikrein were 5 nM and 189 nM, respectively.

Take `CC(=O)N1CCN2c3cccc(c3)[C@@H](n3cnc(-c4cc(Cl)ccc4-n4cc(Cl)nn4)cc3=O)CCCCCNC(=O)[C@H]2C1` [Example 12, (7R,15S)-5-acetyl-15-{4-[5-chloro-2-(4-chloro-1H-1,2,3-triazol-1-yl)phenyl]-6-oxo-1,6-dihydropyrimidin-1-yl}-2,5,9-triazatricyclo[14.3.1.0^2,7]icosa-1(20),16,18-trien-8-one]: the Ki was 6 nM on human Factor XIa and 1050 nM on human plasma kallikrein.

What is called Ki is a dissociation constant, usually derived from enzyme kinetics or from competition with a known ligand.
